Test results from PMC7076515, “Impact of Mucin on Drug Diffusion: Development of a Straightforward In Vitro Method for the Determination of Drug Diffusivity in the Presence of Mucin” (Pharmaceutics, 2020).
Entries after “also recorded” stand apart in the source; their conditions may differ.

How the values were obtained:
[1] = test system: mucin from porcine stomach type III; experiment: UV-visible localized spectroscopy: diffusion from mucin dispersions into water (Drel), and of mucin itself; assay type: physicochemical; conditions: compared to the absence of mucin
Source text: Mucin type III from porcine stomach was dispersed in PBS 65 mOsm/kg (pH 7.4) to obtain 0.1, 0.3 and 0.6% (w/w) mucin dispersions.
In brief, Fick’s second law of diffusion was analytically solved (Equation (1)) assuming times (t) and positions (x) such that t ≪ h2/D and x ≪ h (where h is the full length of the cuvette occupied by water, 3.30 cm). […] (1) c(x,t)=2A/π e^−x^2/2σ^2+4Dt/2σ^2+4Dt

[2] = UV-visible localized spectroscopy: drug diffusion coefficient in water (D0); conditions: no mucin; drug in PBS 65 mOsm/kg pH 7.4 injected into water; 23–25 °C; average of two parallel experiments
[3] = parameters: method as in Drugbank [15]; conditions: ref Drugbank [15], cited from earlier work
[4] = test system: purified gastric mucin type II; parameters: method as in PMID 9188047, PMID 9487548; conditions: ref [24],[25]; cited from earlier work
[5] = parameters: method as in PMID 9188047, PMID 9487548; conditions: ref [24],[25]; cited from earlier work

| SMILES | D Reduction (%) ([1]; MUC 0.0%) | D Reduction (%) ([1]; MUC 0.1% w/w) | D Reduction (%) ([1]; MUC 0.3% w/w) | D Reduction (%) ([1]; MUC 0.6% w/w) | D0 (diffusion coefficient in plain water) [2] | Charge at pH 7.4 [3] | Diffusion in purified gastric mucin versus phosphate buffer [4] | pKa [3] | Diffusion in native pig intestinal mucus [5] |
| --- | --- | --- | --- | --- | --- | --- | --- | --- | --- |
| CC(C)NCC(O)COc1ccc(CC(N)=O)cc1 (stereo not shown) [ATN, Atenolol] | 0% | 24% | 47% | 63% | 5.81 10^−6 cm^2/s |  |  |  |  |
| Cn1c(=O)c2c(ncn2C)n(C)c1=O [CAF, caffeine] | 0% | 33% | 51% | 67% | 9.07 10^−6 cm^2/s | 0 |  |  |  |
| C[C@]12CCC(=O)C=C1CC[C@@H]1[C@@H]2[C@@H](O)C[C@@]2(C)[C@H]1CC[C@]2(O)C(=O)CO [HYD, hydrocortisone] | 0% | 17% | 36% | 37% | 6.44 10^−6 cm^2/s | 0 | comparable to the one in phosphate buffer; also recorded: not hindered compared to phosphate buffer | 12.6 | impaired to a higher extent; also recorded: slow down the diffusion |
| COc1ccc2cc([C@H](C)C(=O)O)ccc2c1 [NPR, naproxen] | 0% | 25% | 53% | 65% | 8.02 10^−6 cm^2/s |  |  |  |  |
